According to patent publication US7569351B2 (Oncotherapy Science, Inc., priority 2000, dated 2009):

Key:
p53AIP1 [1] = experiment: Antisense inhibition of p53AIP1 expression (RT-PCR); type: cell-based, human; conditions: U373MG, 1 μM oligonucleotide 4 hr, then Ad-p53, 48 hr
U373MG cells = experiment: Antisense inhibition of p53-induced apoptosis (FACS); type: cell-based, human; conditions: 1 μM oligonucleotide 4 hr, then Ad-p53, 48 hr
p53AIP1 [2] = experiment: p53AIP1 expression after apoptosis stimulators (Western blotting, RT-PCR); type: cell-based, human; conditions: MCF7 cells
Method: FIG. 15 presents photographs showing the expression of p53AIP1 through different apoptotic pathways, which was detected by Western blotting (A) and semiquantitative RT-PCR (B) analyses. MCF7 cells were collected at 36 hr after STS damage and 48 hr after UV or TNFα damage for Western blotting analysis, or 24 hr after STS damage, and 48 hr after UV or TNFα damage for RT-PCR. Expression of β-actin or β2MG serves as a control.
Cells were plated 24 hr before apoptosis-inducing treatment, and grown to 60%-70% confluency at the time of treatment. To test whether the expression of p53AIP1 in response to apoptotic stresses, MCF7 (breast carcinoma) cells were continuously incubated with staurosporine or TNFα, or were treated with UV at given dosages (J/m^2) using a UV cross-linker (Stratagene). […] The cells (2×10^4 or more) were analyzed in a flow cytometer (FACScalibur; Becton Dickinson) to determine the percentage of sub-G1 nuclei in the cell population. […]
For RT-PCR analysis, total RNA was first isolated from cells using the RNeasy spin column kit (QIAGEN) according to the manufacturer's instructions. cDNAs were synthesized from 5 μg of total RNA using SuperScript Pre-amplification System (GIBCO-BRL). The exponential phase was determined for RT-PCR within 15 cycles to 30 cycles to allow semiquantitative comparisons among cDNAs derived from identical reactants. […]

p53AIP1 [3] = experiment: Immunocytochemical staining of endogenous p53AIP1 in mitochondria; type: cell-based, human; conditions: MCF7; STS 0.5 μM 24 hr, TNFα 10 ng/ml 48 hr
Text: (§1) FIG. 17 presents photographs showing the expression of p53AIP1 protein in the mitochondria, and the function of p53AIP1 protein in apoptosis induced by UV or STS. […] Twenty-four hours after STS and UV damage or 48 hr after TNFα damage, p53AIP1 protein and mitochondria in the cells were stained with FITC-conjugated rabbit anti-p53AIP1 antibody and Mito Tracker Red (CMXRos), respectively. The nuclei was visualized by DAPI staining. […] MCF7 cells were transfected with AS or sense oligonucleotides (SE) (1 μM) using Lipofectin reagent (GIBCO-BRL) for 4 hr, and then the cells were damaged by UV irradiation (50 J/m^2). Thirty-six hours after transfection, p53AIP1 expression was evaluated by Western blotting.
Incubation times and radiation doses were as follows: for RT-PCR, STS treatment was performed for 24 hr and TNFα and UV, for 48 hr; for Western blotting, STS, for 36 hr and TNFα and UV, for 48 hr; for FACS and TUNEL assays, STS (0.5 μM) and UV (50 J/m^2) for 36 hr and TNFα (10 ng/ml), for 72 hr; and for immunocytochemical analysis, STS (0.5 μM) and UV (50 J/m^2), for 24 hr and TNFα (10 ng/ml) for 48 hr.

p53AIP1 [4] = experiment: Antisense inhibition of p53AIP1 expression in MCF7 (Western blotting); type: cell-based, human; conditions: MCF7, AS 1 μM, after UV irradiation, compared with sense oligonucleotide
Text: as §1
(§2) Next, the intracellular localization of endogenous p53AIP1 during apoptosis through different-pathways was identified. In human breast carcinoma cells MCF7 that were not exposed to any apoptosis stimulator, the expression of p53AIP1 was not detected. […] No staining of p53AIP1 was observed after TNFα treatment (FIG. 17). To confirm the involvement of p53AIP1 in apoptotic processes, experiments using an antisense oligonucleotide (AS) corresponding to the p53AIP1 gene were performed. […] After 36 hr from the treatment, apoptotic cells were analyzed by FACS and TUNEL analysis.

MCF7 cells = experiment: Antisense effect on apoptosis in MCF7 (FACS sub-G1); type: cell-based, human; conditions: MCF7, AS 1 μM
Method: MCF7 cells were transfected with AS or SE (1 μM) using Lipofectin reagent (GIBCO-BRL) for 4 hr, and treated with UV irradiation, STS or TNFα.
Cells were plated 24 hr before apoptosis-inducing treatment, and grown to 60%-70% confluency at the time of treatment. To test whether the expression of p53AIP1 in response to apoptotic stresses, MCF7 (breast carcinoma) cells were continuously incubated with staurosporine or TNFα, or were treated with UV at given dosages (J/m^2) using a UV cross-linker (Stratagene). Floating and adherent cells were collected, and subjected to analyses by Western blotting, FACS, and RT-PCR analysis. For FACS analysis, adherent and detached cells were combined and fixed with 75% ethanol at 4° C. After rinsed twice with PBS, cells were incubated at 37° C. for 30 min with 1 ml PBS containing boiled RNase. Cells were then stained in 1 ml PBS containing 10 μg of propidium iodide. The cells (2×10^4 or more) were analyzed in a flow cytometer (FACScalibur; Becton Dickinson) to determine the percentage of sub-G1 nuclei in the cell population. In situ terminal transferase-mediated dUTP nick end-labeling (TUNEL) was performed using Apoptag Direct (Oncor) according to the manufacturer's instructions.
as §2, with “performed. To inhibit endogenous p53AIP1 expression, antisense oligonucleotide (AS2: […]/SEQ ID NO: 30) and a control sense oligonucleotides (SE2: […]/SEQ ID NO: 31) were designed based on the sequence of the p53AIP1 gene, and then purified by HPLC.” for “performed.”

mitochondrial ΔΨm [5] = experiment: Mitochondrial ΔΨm by Rhodamine 123 in HeLa mock parental cells; type: cell-based, human; conditions: MOI 100 pfu/cell, 60 hr after infection
Method: (§3) The cells were labeled with Rhodamine 123 at 60 hr after infection, and fluorescence was analyzed by FACScan. The horizontal axis indicates 10^0 at left end, 10^4 at right end, and 10^2 at center, respectively.
(§4) Next, the mitochondrial ΔΨm itself was analyzed. Detection of mitochondrial membrane potential was performed as follows. […] Sixty hours after infection, adherent and floating cells were collected by trypisinization, and washed twice with cold PBS. Rhodamine 123 (10 nM) in PBS was added to the cells, and were incubated for 30 min at 37° C. Fluorescence was measured by flow cytometry.

p21^Waf1 = experiment: Induction of p21Waf1 by DNA damage in NHDF (RT-PCR); type: cell-based, human; conditions: adriamycin 0.2 μg/ml
Method: (§5) Expression of the GAPDH gene was determined as a quantity control. p53AIP1 and p21/WAF1 expression induced by γ irradiation (IR) and adriamycin treatment (ADR) is analyzed.
(§6) DNA-damaging treatment was performed as follows.
(§7) Cells were inoculated 24 hr before treatment, and grown to 60% to 70% confluency. NHDF and SW480 cells were continuously treated with adriamycin (doxorubicin) at a concentration of 0.2 μg/ml or were treated with γ-ray irradiation at about 1 Gy/min (14 Gy).

p53AIP1 [6] = experiment: Induction of endogenous p53AIP1 by DNA damage in NHDF (RT-PCR); type: cell-based, human; conditions: adriamycin 0.2 μg/ml
Method: as §5, §6, §7

mitochondrial ΔΨm [7] = experiment: Mitochondrial membrane potential by Mitotracker Red CMXRos; type: cell-based; conditions: 24 hr after transfection
Method: To evaluate the mitochondrial membrane potential, cells were incubated in culture media containing […] Mitotracker Red CMXRos (Molecular Probes) at 37° C. for 30 min, and then fixed to be labeled with a longer wavelength (579 nm to 599 nm) fluorescence emission.

T98G cells = experiment: TUNEL analysis after transfection of expression vectors; type: cell-based, human; conditions: harvested 48 hr after transfection
Method: To investigate whether introduction of exogenous p53AIP1 could indeed induce apoptotic cell death, in situ terminal transferase-mediated dUTP nick end-labeling (TUNEL) analysis was performed. […] TUNEL analysis was performed using Apotag Direct ([…]) according to the manufacturer's instructions. […] DNA fragments were evaluated using the ApoAlert LM-PCR ladder assay kit (Clontech) according to the manufacturer's instructions.

mitochondrial ΔΨm [8] = experiment: Mitochondrial ΔΨm by Rhodamine 123 in HeLa cells overexpressing bcl-2; type: cell-based, human; conditions: both HeLa cell lines overexpressing bcl-2, 60 hr after infection
Method: as §3, §4

WTp53 cancer cell lines = experiment: Anti-tumor effect in vitro, nine cancer cell lines containing wild-type p53; type: cell-based, human
Method: Apoptotic cells were analyzed by FACScan at 96 hr after infection.

GATCCCATCCAGGGGA (listed as DNA, chemistry not given here) [AS1]
inhibition of the induction of p53AIP1 expression (p53AIP1 [1]): significantly inhibited
inhibition of the induction of p53-induced apoptosis (U373MG cells): significantly inhibited

CN[C@@H]1C[C@H]2O[C@@](C)([C@@H]1OC)n1c3ccccc3c3c4c(c5c6ccccc6n2c5c31)C(=O)NC4 [STS, staurosporine]
expression of p53AIP1 during apoptotic induction (p53AIP1 [2]): increased significantly in a dose-dependent manner
staining of p53AIP1 in the mitochondria (p53AIP1 [3]): intense staining

TNFα
staining of p53AIP1 in the mitochondria (p53AIP1 [3]): No staining

TCCCCTGGATGGGATC (chemistry not given here) [AS2]
reduction in the p53AIP1 expression level (p53AIP1 [4]): 50%
inhibition of cell death induced by TNFα (MCF7 cells; TNFα 10 ng/ml): did not inhibit
apoptotic (sub-G1) cell population, second pair (MCF7 cells; reduced from 33%, after UV irradiation): 16%
apoptotic (sub-G1) cell population, first pair (MCF7 cells; reduced from 37%, stimulus not clearly printed): 28%

GGAGGCAGGTGAGGAG (listed as DNA, chemistry not given here) [SE1, reference compound]
inhibition of the induction of p53AIP1 expression (p53AIP1 [1]): not
inhibition of the induction of p53-induced apoptosis (U373MG cells): not

LacZ: exogenous LacZ expressed from Ad-LacZ, control [reference compound]
down-regulation of mitochondrial ΔΨm (mitochondrial ΔΨm [5]): did not

COc1cccc2c1C(=O)c1c(O)c3c(c(O)c1C2=O)C[C@@](O)(C(=O)CO)C[C@@H]3O[C@H]1C[C@H](N)[C@H](O)[C@H](C)O1 [adriamycin, adriamycin (doxorubicin)]
time of maximum p21^Waf1 expression (p21^Waf1): 6 h
time of maximum levels of p53AIP1 (p53AIP1 [6]): 24 h

B1: p53AIP1α: p53-dependent apoptosis-associated protein, 124 amino acids, SEQ ID NO: 2, expressed from vector (protein, listed as Homo sapiens)
chain: MGSSSEASFRSAQASCSGARRQGLGRGDQNLSVMPPNGRAQTHTPGWVSDPLVLGAQVHGGCRGIEALSVSSGSWSSATVWILTGLGLGLSRPFLPGATVLRDRPLGSAFELSYDQKKAPLRLQ
dissipation of mitochondrial ΔΨm (mitochondrial ΔΨm [7]): Almost all cells
transfected T98G cells undergoing apoptosis (TUNEL) (T98G cells): more than half
down-regulation of mitochondrial ΔΨm with bcl-2 overexpression (mitochondrial ΔΨm [8]): blocked
down-regulation of mitochondrial ΔΨm (mitochondrial ΔΨm [5]): down-regulated

B2: p53AIP1: p53-regulated Apoptosis Inducing Protein 1, exogenous expression by adenovirus-mediated gene transfer (protein)
chain: MGSSSEASFRSAQASCSGARRQGLGRGDQNLSVMPPNGRAQTHTPGWVSDPLVLGAQVHGGCRGIEALSVSSGSWSSATVWILTGLGLGLSRPFLPGATVLRDRPLGSAFELSYDQKKAPLRLQ
modifications: left off: small tags and cut ends
notes: p53-regulated Apoptosis Inducing Protein 1, exogenous expression by adenovirus-mediated gene transfer
induction of apoptosis in WTp53 cancer cell lines (WTp53 cancer cell lines; nine lines tested, adenovirus-mediated gene transfer, 96 hr): effectively induced apoptosis in six of the WTp53 cancer cell lines
cell killing compared with p53 (WTp53 cancer cell lines; the six responsive WTp53 lines): four of the six cell lines were killed more effectively
